Several values for one entry are separate records, joined by “and”; a condition that tells them apart may be missing. Identical values can stand only once.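 Grown in 96-well plates, cells were treated for 48 hours with each compound at five concentrations. Insufficient inhibition: endpoint recorded as highest concentration tested. GI50: concentration for 50% inhibition of growth. TGI: total growth inhibition.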

We go through 9 compounds from PubChem BioAssay (NCI).

Among the test systems are T-47D breast; SN12C renal; SNB-19 CNS; COLO 205 colon; CAKI-1 renal; HOP-92 NSCLC; A549 NSCLC; LOX IMVI melanoma; MDA-MB-231 breast; 786-0 renal; BT-549 breast; NCI-H522 lung; UACC-257 melanoma; NCI-H460 lung; HS 578T breast; SK-OV-3 ovarian; SF-539 CNS.
Test in all cases: DTP human tumour cell line panel, 48 h

For `Cc1ccc2c(c1)-c1nc(N)c(C#N)c(-c3ccccc3)c1CCS2(=O)=O`, the concentration for total growth inhibition (TGI) (in general, the concentration giving total growth inhibition) is over 100 µM in the assay with T-47D breast; over 100 µM in the assay on SN12C renal; 67.7 µM in the assay on SNB-19 CNS; over 100 µM with COLO 205 colon; over 100 µM in the assay on CAKI-1 renal; 80.3 µM with HOP-92 NSCLC. Moreover, the TGI in the assay with A549 NSCLC was over 100 µM; with LOX IMVI melanoma, over 100 µM; in the assay on MDA-MB-231 breast, over 100 µM; in the assay on 786-0 renal, 44.1 µM; with BT-549 breast, over 100 µM; in the assay with NCI-H522 lung it was over 100 µM. The values for the TGI with UACC-257 melanoma, in the assay with NCI-H460 lung and with HS 578T breast were over 100 µM, over 100 µM and 68.1 µM, respectively.
On to `CN(C)c1nc(Cl)c2c(-c3ccccc3)c(-c3ccccc3)oc2n1`, for which the TGI in the assay with T-47D breast, in the assay on SK-OV-3 ovarian, with SN12C renal, in the assay with SNB-19 CNS, in the assay with COLO 205 colon and in the assay on SF-539 CNS was over 100 µM each time. For the same compound, the TGI in the assay with CAKI-1 renal, in the assay on HOP-92 NSCLC, in the assay with A549 NSCLC, with LOX IMVI melanoma, in the assay on MDA-MB-231 breast and in the assay on 786-0 renal was over 100 µM throughout. The TGI in the assay with BT-549 breast is 97.7 µM; in the assay with NCI-H522 lung it was 78.7 µM; with UACC-257 melanoma, over 100 µM; in the assay with HS 578T breast, over 100 µM.
On to `Cc1ccc(S(=O)(=O)NNCNC(=O)c2ccccc2)cc1`, for which the total growth inhibition concentration (TGI) in the assay with T-47D breast, in the assay with SK-OV-3 ovarian, in the assay on SN12C renal, in the assay on SNB-19 CNS, in the assay on COLO 205 colon and with SF-539 CNS was over 100 µM throughout. In addition, the TGI in the assay with CAKI-1 renal, in the assay on HOP-92 NSCLC, in the assay with A549 NSCLC, in the assay on LOX IMVI melanoma, with MDA-MB-231 breast and with 786-0 renal was over 100 µM throughout. In addition, the total growth inhibition concentration (TGI) in the assay with BT-549 breast, in the assay with NCI-H522 lung, with UACC-257 melanoma and in the assay on HS 578T breast was over 100 µM each time.
As for `O=C1Oc2cc(O)cc(/C=C/c3ccc(O)cc3)c2[C@@]12c1c(O)cc(O)cc1OC2c1cccc(O)c1` (stereo not given in full), the TGI in the assay with T-47D breast was over 100 µM; in the assay on SK-OV-3 ovarian it was 93.5 µM; with SN12C renal, 78 µM; in the assay with SNB-19 CNS it was 91.6 µM; with COLO 205 colon, 69.7 µM; in the assay on SF-539 CNS, over 100 µM. In addition, the concentration for total growth inhibition (TGI) was over 100 µM with CAKI-1 renal; over 100 µM in the assay with HOP-92 NSCLC; over 100 µM in the assay on A549 NSCLC; 75.3 µM in the assay with LOX IMVI melanoma; 95.9 µM with MDA-MB-231 breast; 59.7 µM in the assay with 786-0 renal. Besides, the TGI in the assay with BT-549 breast was over 100 µM; with UACC-257 melanoma, 67.5 µM; in the assay with NCI-H460 lung it was 59.6 µM; with HS 578T breast, 56.6 µM.
For `COC(=O)C1OC(O[C@H]2CC[C@]3(C)[C@H]4CC=C5[C@@H]6CC(C)(C)CC[C@]6(C(=O)OC6OCC(O)C(O)C6OC6OC(C)C(OC7OCC(O)C(O)C7O)C(O)C6O)CC[C@@]5(C)[C@]4(C)CC[C@H]3C2(C)C)C(O)C(O)C1O` (stereo not given in full), the TGI is > 100 µM and 54.2 µM in the assay with T-47D breast; 35.9 µM and 36.7 µM with SK-OV-3 ovarian; 27.1 µM and 31.2 µM in the assay on SN12C renal; 31.2 µM and 27.2 µM with SNB-19 CNS; 25.8 µM and 30.6 µM in the assay on COLO 205 colon; 25.9 µM and 34.9 µM in the assay with CAKI-1 renal. For the same compound, the TGI in the assay on HOP-92 NSCLC was 30.9 µM and 39.4 µM; in the assay with A549 NSCLC it was 33 µM and 41 µM; in the assay with LOX IMVI melanoma, 30.5 µM and 29 µM; in the assay on MDA-MB-231 breast, 20.1 µM and 12.6 µM; with 786-0 renal, 29.2 µM and 32.4 µM; in the assay with BT-549 breast it was 34.1 µM and 33.2 µM. In addition, the concentration for total growth inhibition (TGI) in the assay with NCI-H522 lung is 30.9 µM and 30.5 µM; in the assay with UACC-257 melanoma, 27.4 µM and 29.7 µM; with NCI-H460 lung, > 100 µM and 43.8 µM; in the assay on HS 578T breast, 39.4 µM and 35.9 µM. For the same compound, the GI50 (as a rule, the concentration at which growth is held to half of that of the control) in the assay on MDA-MB-231 breast was 7.51 µM and 2.75 µM.
In the case of `NC(N)=Nc1ccc(CC(N)C(=O)O)cc1` (stereo not given), the TGI in the assay with T-47D breast, in the assay on SK-OV-3 ovarian, in the assay on SN12C renal, with COLO 205 colon, with CAKI-1 renal and with HOP-92 NSCLC was over 12.5 µM throughout. In addition, the concentration for total growth inhibition (TGI) with A549 NSCLC, with LOX IMVI melanoma, in the assay on MDA-MB-231 breast, in the assay on 786-0 renal, in the assay with BT-549 breast and in the assay on NCI-H522 lung was over 12.5 µM in each case. Besides, the TGI with UACC-257 melanoma and in the assay with HS 578T breast was over 12.5 µM in each case.
`CC(=O)OCC1OC(n2c(-c3ccc(C)cc3)cc(-c3ccccc3)c(C#N)c2=S)C(OC(C)=O)C(OC(C)=O)C1OC(C)=O` (stereo not given): the concentration for total growth inhibition (TGI) in the assay with T-47D breast, in the assay on SK-OV-3 ovarian, in the assay on SN12C renal, with SNB-19 CNS, in the assay with COLO 205 colon and in the assay with SF-539 CNS was over 100 µM in each case. Further, the TGI with CAKI-1 renal, in the assay on HOP-92 NSCLC, in the assay on A549 NSCLC, with LOX IMVI melanoma, with MDA-MB-231 breast and in the assay on 786-0 renal was over 100 µM throughout. The TGI in the assay on BT-549 breast, in the assay on NCI-H522 lung, in the assay on NCI-H460 lung and in the assay with HS 578T breast was over 100 µM each time.
Consider `CCOC(=O)NC(Nc1ccc(C(=O)OCC)cc1)(C(F)(F)F)C(F)(F)F`, for which the TGI in the assay with T-47D breast, with SK-OV-3 ovarian, in the assay on SN12C renal, in the assay with SNB-19 CNS, in the assay on COLO 205 colon and in the assay with SF-539 CNS was over 100 µM throughout. Further, the concentration for total growth inhibition (TGI) in the assay with HOP-92 NSCLC, in the assay with A549 NSCLC, in the assay with LOX IMVI melanoma, in the assay with MDA-MB-231 breast, with 786-0 renal and in the assay with BT-549 breast was over 100 µM each time. Also, the total growth inhibition concentration (TGI) with NCI-H522 lung, with NCI-H460 lung and in the assay with HS 578T breast was over 100 µM each time.
As to `O=C(O)CN1C(=O)C(Cc2ccc(O)cc2)N=C(c2cccc(O)c2)c2ccccc21` (stereo not given), the TGI in the assay on T-47D breast is over 100 µM; with SK-OV-3 ovarian, over 100 µM; in the assay with SN12C renal, 34.8 µM; in the assay on SNB-19 CNS, over 100 µM; with SF-539 CNS, over 100 µM; in the assay on HOP-92 NSCLC, over 100 µM. Moreover, the concentration for total growth inhibition (TGI) with A549 NSCLC, in the assay on LOX IMVI melanoma, in the assay with MDA-MB-231 breast, with 786-0 renal, with BT-549 breast and with NCI-H522 lung was over 100 µM in each case. The TGI in the assay on UACC-257 melanoma, in the assay on NCI-H460 lung and with HS 578T breast was over 100 µM throughout.
